Structures are written as SMILES.

The assay addresses T1, human PTH1 receptor (Homo sapiens, UniProt Q03431).
T1 sequence (Q03431 27-593): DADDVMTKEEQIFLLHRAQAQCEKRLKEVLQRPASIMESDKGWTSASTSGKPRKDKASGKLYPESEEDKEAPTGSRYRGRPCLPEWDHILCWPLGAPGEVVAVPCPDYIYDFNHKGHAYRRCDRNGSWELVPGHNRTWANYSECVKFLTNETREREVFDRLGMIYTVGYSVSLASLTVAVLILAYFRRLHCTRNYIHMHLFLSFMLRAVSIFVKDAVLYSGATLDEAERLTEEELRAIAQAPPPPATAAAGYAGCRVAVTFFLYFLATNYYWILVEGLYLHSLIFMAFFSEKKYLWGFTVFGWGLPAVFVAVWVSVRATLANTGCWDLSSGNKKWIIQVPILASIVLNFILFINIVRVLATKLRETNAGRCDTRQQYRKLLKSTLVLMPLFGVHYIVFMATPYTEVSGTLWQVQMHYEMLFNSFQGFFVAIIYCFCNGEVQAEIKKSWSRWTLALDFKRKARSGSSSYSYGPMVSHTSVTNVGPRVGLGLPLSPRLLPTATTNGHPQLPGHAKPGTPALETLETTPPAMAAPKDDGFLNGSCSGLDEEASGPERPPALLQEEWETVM
Put plainly: In vitro cAMP signal activity in HKRK-B7 cells (LLC-PK1 cells overexpressing the human PTH1 receptor). As to conditions: HKRK-B7 cells; compound at 1×10^−3 M; cAMP produced as percentage of that produced by hPTH(1-34) at 100 nM. Type of assay: cell-based.
Regarding `CCCCC1CCC(C2=NC3(CCN(S(=O)(=O)/C=C/c4c(C)cc(N(CCOCCF)C(C)=O)cc4C)CC3)C(=O)N2)CC1` (stereo not drawn) [Compound 562, N-(4-{(E)-2-[2-(4-butyl-cyclohexyl)-4-oxo-1,3,8-triaza-spiro[4.5]dec-1-ene-8-sulfonyl]-vinyl}-3,5-dimethyl-phenyl)-N-[2-(2-fluoro-ethoxy)-ethyl]-acetamide], the “cAMP production activity (%)” value stood at 74%. The result for `Cc1cc(N2C(=O)CNC2=O)ccc1/C=C/S(=O)(=O)N1CCC2(CC1)N=C(C1CCC(C(C)C)CC1)NC2=O` (stereo not drawn) [Compound 563, 3-(4-{(E)-2-[2-(4-Isopropyl-cyclohexyl)-4-oxo-1,3,8-triaza-spiro[4.5]dec-1-ene-8-sulfonyl]-vinyl}-3-methyl-phenyl)-imidazolidine-2,4-dione] reads 69%. The result for `Cc1cc(N2C(=O)CNC2=O)cc(C)c1/C=C/S(=O)(=O)N1CCC2(CC1)N=C(C1CCC(C(C)C)CC1)NC2=O` (stereo not drawn) [Compound 564, 3-(4-{(E)-2-[2-(4-isopropyl-cyclohexyl)-4-oxo-1,3,8-triaza-spiro[4.5]dec-1-ene-8-sulfonyl]-vinyl}-3,5-dimethyl-phenyl)-imidazolidine-2,4-dione] reads 68%. The result for `CN(C)C(=O)NCc1ccc(/C=C/S(=O)(=O)N2CCC3(CC2)N=C(C2CCCCC2)NC3=O)cc1` [Compound 565, 3-{4-[(E)-2-(2-cyclohexyl-4-oxo-1,3,8-triaza-spiro[4.5]dec-1-ene-8-sulfonyl)-vinyl]-benzyl}-1,1-dimethyl-urea] reads 45%. Consider `COC(=O)NCCc1ccc(/C=C/S(=O)(=O)N2CCC3(CC2)N=C(C2CCCCC2)NC3=O)cc1` [Compound 566, (2-{4-[(E)-2-(2-cyclohexyl-4-oxo-1,3,8-triaza-spiro[4.5]dec-1-ene-8-sulfonyl)-vinyl]-phenyl}-ethyl)-carbamic acid methyl ester], for which the “cAMP production activity (%)” value was found to be 19%.

For `CN1CCN(C(=O)NCc2ccc(/C=C/S(=O)(=O)N3CCC4(CC3)N=C(C3CCCCC3)NC4=O)cc2)CC1` [Compound 567, 4-methyl-piperazine-1-carboxylic acid 4-[(E)-2-(2-cyclohexyl-4-oxo-1,3,8-triaza-spiro[4.5]dec-1-ene-8-sulfonyl)-vinyl]-benzylamide], the “cAMP production activity (%)” value is listed as 24%. `Cc1cc(NS(=O)(=O)N(C)C)ccc1/C=C/S(=O)(=O)N1CCC2(CC1)N=C(C1CCCCC1)NC2=O` [Compound 568, N-{4-[(E)-2-(2-cyclohexyl-4-oxo-1,3,8-triaza-spiro[4.5]dec-1-ene-8-sulfonyl)-vinyl]-3-methyl-phenyl}-N′,N′-dimethyl-sulfamide]: the “cAMP production activity (%)” value amounted to 39%.

As to `Cc1cc(CN(CCCN(C)C)C(=O)OC(C)(C)C)ccc1/C=C/S(=O)(=O)N1CCC2(CC1)N=C(C1CCCCC1)NC2=O` [Compound 569, {4-[(E)-2-(2-cyclohexyl-4-oxo-1,3,8-triaza-spiro[4.5]dec-1-ene-8-sulfonyl)-vinyl]-3-methyl-benzyl}-(3-dimethylamino-propyl)-carbamic acid tert-butyl ester], the “cAMP production activity (%)” value is 4.2%. As for `CC(C)(C)CNC(=O)Cc1ccc(/C=C/S(=O)(=O)N2CCC3(CC2)N=C(C2CCCCC2)NC3=O)cc1` [Compound 570, 2-{4-[(E)-2-(2-cyclohexyl-4-oxo-1,3,8-triaza-spiro[4.5]dec-1-ene-8-sulfonyl)-vinyl]-phenyl}-N-(2,2-dimethyl-propyl)-acetamide], the “cAMP production activity (%)” value was 66%. For the molecule `CC(C)N(CCNC(=O)Cc1ccc(/C=C/S(=O)(=O)N2CCC3(CC2)N=C(C2CCCCC2)NC3=O)cc1)C(C)C` [Compound 571, 2-{4-[(E)-2-(2-cyclohexyl-4-oxo-1,3,8-triaza-spiro[4.5]dec-1-ene-8-sulfonyl)-vinyl]-phenyl}-N-(2-diisopropylamino-ethyl)-acetamide], the “cAMP production activity (%)” value stood at 39%.

In the case of `Cc1cc(N2CCC2=O)ccc1/C=C/S(=O)(=O)N1CCC2(CC1)N=C(C1CCCCC1)NC2=O` [Compound 572, 2-cyclohexyl-8-{(E)-2-[2-methyl-4-(2-oxo-azetidin-1-yl)-phenyl]-ethenesulfonyl}-1,3,8-triaza-spiro[4.5]dec-1-en-4-one], the “cAMP production activity (%)” value was 36%. The result for `Cc1cc(Nc2nccs2)cc(C)c1/C=C/S(=O)(=O)N1CCC2(CC1)N=C(C1CCCCC1)NC2=O` [Compound 573, 2-cyclohexyl-8-{(E)-2-[2,6-dimethyl-4-(thiazol-2-ylamino)-phenyl]-ethenesulfonyl}-1,3,8-triaza-spiro[4.5]dec-1-en-4-one] reads 35%. The result for `CC(=O)N(CC1(C)COC1)c1cc(C)c(/C=C/S(=O)(=O)N2CCC3(CC2)N=C(C2CCCCC2)NC3=O)c(C)c1` [Compound 574, N-{4-[(E)-2-(2-cyclohexyl-4-oxo-1,3,8-triaza-spiro[4.5]dec-1-ene-8-sulfonyl)-vinyl]-3,5-dimethyl-phenyl}-N-(3-methyl-oxetan-3-ylmethyl)-acetamide] reads 42%; that for `Cc1cc(N2C(=O)CNC2=O)cc(C)c1/C=C/S(=O)(=O)N1CCC2(CC1)N=C(C1CCC(C)CC1)NC2=O` (stereo not drawn) [Compound 575, 3-(3,5-Dimethyl-4-{(E)-2-[2-(4-methyl-cyclohexyl)-4-oxo-1,3,8-triaza-spiro[4.5]dec-1-ene-8-sulfonyl]-vinyl}-phenyl)-imidazolidine-2,4-dione], 57%. The result for `CCOCc1cc(NC(C)=O)ccc1/C=C/S(=O)(=O)N1CCC2(CC1)N=C(C1CCC(C)CC1)NC2=O` (stereo not drawn) [Compound 576, N-(3-ethoxymethyl-4-{(E)-2-[2-(4-methyl-cyclohexyl)-4-oxo-1,3,8-triaza-spiro[4.5]dec-1-ene-8-sulfonyl]-vinyl}-phenyl)-acetamide] reads 95%; that for `Cc1cc(N2COCC2=O)ccc1/C=C/S(=O)(=O)N1CCC2(CC1)N=C(C1CCC(C)CC1)NC2=O` (stereo not drawn) [Compound 577, 2-(4-methyl-cyclohexyl)-8-{(E)-2-[2-methyl-4-(4-oxo-oxazolidin-3-yl)-phenyl]-ethenesulfonyl}-1,3,8-triaza-spiro[4.5]dec-1-en-4-one], 74%; that for `Cc1cc(N2CCN(C(=O)OC(C)(C)C)CC2=O)ccc1/C=C/S(=O)(=O)N1CCC2(CC1)N=C(C1CCC(C)CC1)NC2=O` (stereo not drawn) [Compound 578, 4-(3-methyl-4-{(E)-2-[2-(4-methyl-cyclohexyl)-4-oxo-1,3,8-triaza-spiro[4.5]dec-1-ene-8-sulfonyl]-vinyl}-phenyl)-3-oxo-piperazine-1-carboxylic acid tert-butyl ester], 13%.

For the molecule `Cc1cc(N2C(=O)OCC2C)ccc1/C=C/S(=O)(=O)N1CCC2(CC1)N=C(C1CCC(C)CC1)NC2=O` (stereo not drawn) [Compound 579, 2-(4-methyl-cyclohexyl)-8-{(E)-2-[2-methyl-4-(4-methyl-2-oxo-oxazolidin-3-yl)-phenyl]-ethenesulfonyl}-1,3,8-triaza-spiro[4.5]dec-1-en-4-one], the “cAMP production activity (%)” value is reported as 55%. Consider `Cc1cc(N2OCCC2=O)ccc1/C=C/S(=O)(=O)N1CCC2(CC1)N=C(C1CCC(C)CC1)NC2=O` (stereo not drawn) [Compound 580, 2-(4-methyl-cyclohexyl)-8-{(E)-2-[2-methyl-4-(3-oxo-isoxazolidin-2-yl)-phenyl]-ethenesulfonyl}-1,3,8-triaza-spiro[4.5]dec-1-en-4-one], for which the “cAMP production activity (%)” value was 25%. The result for `Cc1cc(N2C(=O)CNC2=O)c(C)cc1/C=C/S(=O)(=O)N1CCC2(CC1)N=C(C1CCC(C)CC1)NC2=O` (stereo not drawn) [Compound 581, 3-(2,5-dimethyl-4-{(E)-2-[2-(4-methyl-cyclohexyl)-4-oxo-1,3,8-triaza-spiro[4.5]dec-1-ene-8-sulfonyl]-vinyl}-phenyl)-imidazolidine-2,4-dione] reads 75%.

As for `Cc1cc(N2C(=O)NC(C)C2=O)cc(C)c1/C=C/S(=O)(=O)N1CCC2(CC1)N=C(C1CCC(C)CC1)NC2=O` (stereo not drawn) [Compound 582, 3-(3,5-dimethyl-4-{(E)-2-[2-(4-methyl-cyclohexyl)-4-oxo-1,3,8-triaza-spiro[4.5]dec-1-ene-8-sulfonyl]-vinyl}-phenyl)-5-methyl-imidazolidine-2,4-dione], the “cAMP production activity (%)” value is listed as 104%. As for `Cc1cc(/C=C/S(=O)(=O)N2CCC3(CC2)N=C(C2CCC(C)CC2)NC3=O)cc(C)c1N1C(=O)CNC1=O` (stereo not drawn) [Compound 583, 3-(2,6-dimethyl-4-{(E)-2-[2-(4-methyl-cyclohexyl)-4-oxo-1,3,8-triaza-spiro[4.5]dec-1-ene-8-sulfonyl]-vinyl}-phenyl)-imidazolidine-2,4-dione], the “cAMP production activity (%)” value is recorded as 85%. The result for `CC(=O)N(C)c1c(C)cc(/C=C/S(=O)(=O)N2CCC3(CC2)N=C(C2CCC(C)CC2)NC3=O)cc1C` (stereo not drawn) [Compound 584, N-(2,6-dimethyl-4-{(E)-2-[2-(4-methyl-cyclohexyl)-4-oxo-1,3,8-triaza-spiro[4.5]dec-1-ene-8-sulfonyl]-vinyl}-phenyl)-N-methyl-acetamide] reads 24%. The result for `COc1cccc(/C=C/S(=O)(=O)N2CCC3(CC2)N=C([C@H]2CC[C@H](C)CC2)NC3=O)c1C` [Compound 585, 8-[(E)-2-(3-methoxy-2-methyl-phenyl)-ethenesulfonyl]-2-(4-methyl-cyclohexyl)-1,3,8-triaza-spiro[4.5]dec-1-en-4-one] reads 39%.

Source of the values: patent publication US9169254B2, “Spiroimidazolone derivative” (Chugai Seiyaku Kabushiki Kaisha, priority 2009, dated 2015).
